± gives the expanded uncertainty stated by the source.

The text below walks through data of the NIST ThermoML archive (doi:10.1021/je200800f).

A short description of series [1]: Molar enthalpy of transition or fusion. Conditions: Crystal; DSC.
For series [2] the following is noted: DTA.

On to `CC(CC(=O)O)CC(=O)O` [3-methylpentanedioic acid], for which the “Molar enthalpy of transition or fusion” value in series [1] was 7.39 ± 0.287 kcal/mol. Besides, in series [2] (Crystal 1), the Normal melting temperature is 85.5 ± 2 °C.

For `CC(C(=O)O)C(C)C(=O)O` (configuration not stated) [2,3-dimethyl-1,4-butanedioic acid], the “Molar enthalpy of transition or fusion” value in series [1] was 4.04 ± 0.167 kcal/mol. The Normal melting temperature in series [2] (Crystal) amounted to 119.4 ± 2 °C.

In the case of `O=C(O)CCCC(=O)O` [1,5-pentanedioic acid], the “Molar enthalpy of transition or fusion” value in series [1] came out at 5.14 ± 0.215 kcal/mol. Also, the Normal melting temperature in series [2] (Crystal) was 96.0 ± 2 °C.

Take `O=C(O)CCCCCC(=O)O` [1,7-heptanedioic acid]: the “Molar enthalpy of transition or fusion” value in series [1] is 6.88 ± 0.287 kcal/mol. Also, the Normal melting temperature in series [2] (Crystal) came out at 104.2 ± 2 °C.

With `O=C(O)CCCCC(=O)O` [1,6-hexanedioic acid], the “Molar enthalpy of transition or fusion” value in series [1] stood at 8.41 ± 0.382 kcal/mol. The Normal melting temperature in series [2] (Crystal) stood at 153.2 ± 2 °C.

Consider `CC(C)(CC(=O)O)C(=O)O` [2,2-dimethyl-1,4-butanedioic acid], for which the “Molar enthalpy of transition or fusion” value in series [1] was determined as 9.11 ± 0.287 kcal/mol. In series [2] (Crystal 1), the Normal melting temperature was 138 ± 2 °C.
